From patent publication US20030157715A1, “Modulation of chromosome function by chromatin remodeling agents” (priority 2000, published 2003)
“And” between values parts separate entries of the source, which are not always exact repeats. Equal values may be shown once. “Also recorded” adds a separate entry of the source.

Experiments:
[1] = tested on: w^m4 flies; test: Polyamides fed to developing white-mottled flies; format: in vivo, Drosophila melanogaster; settings: for Lethality / Sex comb (mean) / Sex comb, range of teeth / A6 to A5: fly stock w^m4; for A6 to A5: males with bristles on A6
Excerpt: The eye phenotype of w^m4 flies is quite heterogeneous. About 65% of the eyes are strongly variegated, ranging from quasi-white with little pigment to those containing a generally white background and a number of red patches (defined as the white-mottled class). The remaining flies have eyes with a darker appearance with often larger red patches in an orange background (red-mottled class). Given the phenotypic heterogeneity of w^m4 flies, we carried out our experiments on a relatively large scale by mixing these compounds directly with semi-synthetic fly medium. Vials were prepared containing a final concentration of either 100 μM P9, P31 or no compound. Equal numbers of 5 to 10 days old w^m4 flies were allowed to lay eggs for 36 hours. The parents were then removed and progeny development was allowed to proceed at a constant temperature of 18° C. […] The timing of the developmental stages was also normal and generally, around 90 to 160 flies hatched per vial in this experiment (Table 2).
For eye phenotype analysis, young flies born on the same day were transferred to a drug-free vial and scored 5 days thereafter. Eye phenotypes were categorized into the two classes defined as white-mottled or red-mottled, after examination under a dissection microscope. […] Where in the absence of the drug, 62% of the eyes were scored as white-mottled, only 11% retained this phenotype for the flies raised in the presence of P9. […] In contrast, P31 had no effect on the w^m4 eye phenotype, since 64% of the flies remained white-mottled (FIG. 7C, Table 2).
Vials for egg laying containing polyamides were prepared as follows: 250 nmoles of P9, P31 was dissolved in 150 μl ddH2O and then mixed with 2.35 g of semi-synthetic fly media pre-heated at 60° C. These vials contained a concentration 100 μM of compound in final. After cooling down to room temperature, ˜300 w^m4 flies (age 5-10 days) were added to the vial for egg laying. Eggs were collected for a period of 36 hours at 18° C., mother flies were then removed and fly development was allowed to proceed at a constant temperature (18° C.±1). New-born flies of the same day were transferred to a fresh vial and scored after 5 days for eye phenotypes (Girard et al., 1998). For visual inspection of eye-phenotypes (Table 1), both female and male flies were scored. For optical density measurements of the eye-pigments, 30 heads of males were selected, pigments extracted and measured as described (Hazelrigg et al., 1984).
(§1) The lethality of the progenies was calculated by counting the dead bodies and the total empty pupal shells. The A6 to A5 transformation was detected by bristles that form on abdominal segment A6 on males. All male adult flies obtained (˜50) were scored. Sex combs and halteres were individually inspected and photographed under the microscope (Axiophot, Zeiss) after dissecting at least 30 individuals and incubating them into 30 μl of 0.6 g/ml gum arabic; 4 g/ml chlorohydrate; 35% glycerol under a 24×24 mm coverslip as described (Ashburner, 1989). Since raising double heterozygous flies (Ubx^1/+; bw^D/+) led to lethality, we morphologically dissected eight late stage pupae after carefully removing the pupal envelope.

[2] = tested on: GAF distribution at the bw^D insert of polytene nuclei; test: GAF immunofluorescence in permeabilized bw^D salivary glands; format: cell-based, Drosophila melanogaster; settings: permeabilized glands incubated 60 minutes with compound
Description: We argued that perhaps P31 may open the bw^D insert as to render this heterochromatin more accessible for GAF binding. To address this question, we incubated permeabilized bw^D salivary glands either with P31, P9 or no drug and then triply stained the polytene nuclei for GAF (by immunofluorescence), total DNA (with DAPI) and for the bw^D insert (with P31T). Stained polytene glands were gently mounted for microscopy without squashing in order examine a large number of nuclei.
Kc nuclei and polytene chromosomes were stained with fluorescent polyamides as described elsewhere (Janssen et al., 2000). For immunofluorescence, polytene glands were carefully dissected from bw^D or Canton S. flies in 1× PBS as described (Ashburner, 1989) Whole glands in sol P (1×PBS supplemented with 1 mM MgCl2 and 0.1% digitonin) were then incubated for 60 minutes with various concentrations of either P31, P9 or no compound at room temperature. P31 (not P9) induced redistribution of GAF during this incubation step. Glands were washed then twice for 5 min with sol P and fixed with fresh paraformaldehyde at a final concentration of 0.8%. Glands were washed 5 times in sol P for 5 min and then blocked for 60 min in the same buffer, supplemented with 5% non-fat milk. […] Images were recorded with a wide field, deconvolution-type imaging system from DeltaVision.

[3] = tested on: heterozygous bw^D flies (bw^D/+); test: Polyamides fed to developing heterozygous brown-dominant flies; format: in vivo, Drosophila melanogaster; settings: for eye phenotype / trans-inactivation (in words): bw^D/+, st/st progeny
Description: It was therefore of great interest to test whether P31 would affect the eye phenotype of heterozygous bw^D flies. […] The experiment is similar to that described above for w^m4. Vials with semi-synthetic fly food medium were prepared containing a final concentration of 100 μM P31, P9 or no compound. Egg laying was allowed to proceed for 36 hours by homozygous (bw^D/bw^D) females that were crossed with scarlet (st/st) males. The progeny from this cross is heterozygous for the brown locus and homozygous for scarlet (bw^D/+; st/st). In a scarlet background, a modification of the bw^D eye color is much easier to observe (Talbert et al., 1994).
Drug treatments of the bw^D flies were performed as for w^m4 flies except that 30 parental females were allowed to lay eggs. To obtain the heterozygous bw^D/+; st/st progeny, 30 virgin bw^D/bw^D; st/st homozygous females were mated with scarlet homozygous males for about 5 days before transferring them to experimental vials for egg laying.
as §1

[4] = tested on: satellite III chromatin in Kc nuclei; test: Chromatin opening of satellite III: topoisomerase II / restriction enzyme cleavage in Kc nuclei; format: biochemical, Drosophila
[5] = 100 μM in fly food, eyes scored after 5 days
[6] = 30 male heads, spectrometry, 100 μM in food

CN(C)CCCNC(=O)CCNC(=O)c1cc(NC(=O)c2cc(NC(=O)c3cc(NC(=O)CCNC(=O)c4cc(NC(=O)c5cc(NC(=O)c6cccn6C)cn5C)cn4C)cn3C)cn2C)cn1C [Compound P9, PyPyPy-β-PyPyPy-β-Dp]
effect on PEV / w^m4 eye phenotype (in words) ([1]; 100 μM in fly food): strong suppressor of PEV | "White mottled" (Strongly Variegated) [1, 5]: 8.9% | red pigment level relative to control flies (no drug) [1, 6]: about 3 times | red pigment level relative to wild type flies [1, 6]: about 50% | Lethality [1]: 5-10% | Sex comb (mean) [1]: 10.8 | Sex comb, range of teeth [1]: 9-12 | A6 to A5 [1]: 0% | GAF distribution relative to the bw^D insert [2]: does not alter this pattern | eye phenotype / trans-inactivation (in words) [3]: indistinguishable from that of the no-drug control | A6 to A5, number of bristles on A6 ([3]; fly stock bw^D/bw^+): no bristles were observed | Lethality ([3]; fly stock bw^D/bw^+): 5-10% | A6 to A5 ([3]; fly stock bw^D/bw^+, males with bristles on A6): 0% | facilitation of cleavage by topoisomerase II (in words) [4]: strongly facilitate cleavage | stimulation of topoisomerase II cleavage at 62 nM ([4]; 62 nM, lowest concentration): massive cleavage stimulation | concentration of maximal stimulation of topoisomerase II cleavage ([4]; Kc nuclei in Xenopus egg extracts, VM26): 500 nM and 500 to 1000 nM | lower concentration than P31 needed to open satellite III ([4]; P9 versus P31): roughly 10 fold | cleavage within satellite III by restriction enzymes (HaeIII) ([4]; data not shown): facilitated cleavage within satellite III by restriction enzymes

CN(C)CCCNC(=O)CCNC(=O)c1nc(NC(=O)CCNC(=O)c2nc(NC(=O)CCNC(=O)c3cc(NC(=O)c4nc(NC(=O)CCNC(=O)c5nccn5C)cn4C)cn3C)cn2C)cn1C [Compound P31, Im-β-Im-Py-β-Im-β-Im-β-Dp]
effect on PEV / w^m4 eye phenotype (in words) ([1]; 100 μM in fly food): no effect; also recorded: no activity | "White mottled" (Strongly Variegated) [1, 5]: 64% | "red Mottled" (Weakly Variegated) [1, 5]: 36% | Lethality [1]: 5-10% | Sex comb (mean) [1]: 10.8 | Sex comb, range of teeth [1]: 9-13 | A6 to A5 [1]: 0% | GAF distribution relative to the bw^D insert [2]: dramatic GAF redistribution | mean number of bristles on A6 ([3]; bw^D/+ progeny): 3.75 | eye phenotype / trans-inactivation (in words) [3]: does not overcome trans-inactivation to a significant extent | Lethality ([3]; fly stock bw^D/bw^+): 5-10% | Sex comb (mean) ([3]; fly stock bw^D/bw^+): 8.1 | Sex comb, range of teeth ([3]; fly stock bw^D/bw^+): 7-10 | PEV ([3]; fly stock bw^D/bw^+, grade, key not given): (+?) | progeny lacking bristles on A6 ([3]; heterozygous progeny): about 10% | Pupae delay ([3]; in vivo): 65 to 67 h | developmental delay ([3]; in vivo): over 2 days | concentration giving cleavage stimulation comparable to 62 nM of P9 [4]: 500 nM | stimulation of topoisomerase II cleavage up to 200 nM ([4]; up to 200 nM): no significant reinforcement
